Values quoted from earlier work as cited in patent publication US6916809B2, “Heterocyclic acridone inhibitors of IMPDH enzyme” (Bristol-Myers Squibb Company, priority 2001, dated 2005).
Where two headings read alike, the source gives them in different places.

Columns and labels:
IMPDH types I and II = conditions: low and high concentrations
IL-2, IL-4, and IFN = conditions: Rol 10^-7 M, MPA 10^-8 M
[1] = test system: antigen-specific T lymphocyte responses; conditions: for synergistic effect with Rol on inhibition of antigen-induced proliferation: combined with Rol 10^-7 M; for % inhibition of proliferation: synergistic combination of rolipram and MPA; for approximate IC10: antigen-induced proliferation, Canelos et al. 2001

| SMILES | gene expression for IMPDH types I and II (IMPDH types I and II) | downregulation in the generation of proinflammatory cytokines (IL-2, IL-4, and IFN) | synergistic effect with Rol on inhibition of antigen-induced proliferation [1] | % inhibition of proliferation ([1]; with deoxyguanosine (reversal), p<0.05) | % inhibition of proliferation ([1]; without deoxyguanosine) | approximate IC10 [1] |
| --- | --- | --- | --- | --- | --- | --- |
| COc1c(C)c2c(c(O)c1C/C=C(\C)CCC(=O)O)C(=O)OC2 [MPA, mycophenolic acid] | remained unaffected | no significant downregulation | marked synergistic effect | 35±12% | 81±16% | – |
| C=CC[C@@H]1/C=C(\C)C[C@H](C)C[C@H](OC)[C@H]2O[C@@](O)(C(=O)C(=O)N3CCCC[C@H]3C(=O)O[C@H](/C(C)=C/[C@@H]3CC[C@@H](O)[C@H](OC)C3)[C@H](C)[C@@H](O)CC1=O)[C@H](C)C[C@@H]2OC [tacrolimus] | – | – | little or no synergistic effect | – | – | – |
| CCCC(=O)Nc1ncnc2c1ncn2[C@@H]1O[C@@H]2COP(=O)(O)O[C@H]2[C@H]1OC(=O)CCC [dibuteryl-cAMP] | – | – | – | – | – | ~2e-06 M |
| COc1ccc(C2CNC(=O)C2)cc1OC1CCCC1 (stereo not shown) [Rol, 4-[3-(cyclopentyloxy)-4-methoxy-phenyl]-2-pyrrolidinone] | remained unaffected | no significant downregulation | – | – | – | ~10^−7 M |
